The assay concerns the target human DGAT2 (Homo sapiens (Human), UniProt Q96PD7). Put plainly: DGAT2 Enzymatic Activity Assay. Conditions: 13C18-triolein product by LC/MS/MS.
The mark [1] stands for this setting: Human DGAT2 IC50, hDGAT2 membrane prep from Sf-9 cells.
Where [2] appears, read: read-out: Human DGAT2 IC50, hDGAT2 membrane prep from Sf-9 cells.

From patent US20240254114A1, “PREPARATION OF FUSED AZOLE DERIVATIVES AS NOVEL DIACYLGLYCERIDE 0-ACYLTRANSFERASE 2 INHIBITORS” (Merck Sharp & Dohme LLC, priority 2022, published 2024) come the findings set out here.

Molecules are shown by their SMILES. Where two headings read alike, the source gives them in different places.

Sequence of human DGAT2 (Q96PD7 whole entry): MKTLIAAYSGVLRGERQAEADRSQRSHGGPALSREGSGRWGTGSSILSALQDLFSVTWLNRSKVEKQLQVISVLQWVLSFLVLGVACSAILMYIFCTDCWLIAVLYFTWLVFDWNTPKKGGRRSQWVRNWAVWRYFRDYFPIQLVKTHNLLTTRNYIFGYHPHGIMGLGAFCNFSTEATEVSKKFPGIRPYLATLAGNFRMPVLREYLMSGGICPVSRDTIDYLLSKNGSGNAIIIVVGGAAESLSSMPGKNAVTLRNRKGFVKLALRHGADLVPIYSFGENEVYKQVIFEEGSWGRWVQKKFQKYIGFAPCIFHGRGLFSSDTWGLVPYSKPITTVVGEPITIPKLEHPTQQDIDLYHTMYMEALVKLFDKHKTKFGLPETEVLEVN

`Cn1c(C(=O)NC2(C)CCS(=O)(=O)CC2)nc2ccc(Oc3ncc(F)cc3OCC(F)(F)F)nc21` [Example 29, 5-((5-Fluoro-3-(2,2,2-trifluoroethoxy)pyridin-2-yl)oxy)-3-methyl-N-(4-methyl-1,1-dioxidotetrahydro-2H-thiopyran-4-yl)-3H-imidazo[4,5-b]pyridine-2-carboxamide]: under setting [1], inhibition was half-maximal at 12 nM (IC50).

On to `Cn1c(C(=O)NC2(C)CCS(=O)(=O)CC2)nc2ccc(Oc3ncc(F)cc3OCC(F)F)nc21` [Example 30, 5-((3-(2,2-Difluoroethoxy)-5-fluoropyridin-2-yl)oxy)-3-methyl-N-(4-methyl-1,1-dioxidotetrahydro-2H-thiopyran-4-yl)-3H-imidazo[4,5-b]pyridine-2-carboxamide], for which half-maximal inhibition under setting [1] (IC50) was put at 1.4 nM.

As for `Cn1c(C(=O)NC2(C)CCS(=O)(=O)CC2)nc2ccc(Oc3ncc(F)cc3OCC(C)(F)F)nc21` [Example 32, 5-[[3-(2,2-difluoropropoxy)-5-fluoro-2-pyridyl]oxy]-3-methyl-N-(4-methyl-1,1-dioxo-thian-4-yl)imidazo[4,5-b]pyridine-2-carboxamide], under setting [2], the IC50 (commonly the concentration needed to halve the response being measured) was determined as 236 nM.

Turning to `Cn1c(C(=O)NC2(C)CCS(=O)(=O)CC2)nc2ccc(Oc3ncccc3OCC(F)(F)F)nc21` [Example 34, 3-methyl-N-(4-methyl-1,1-dioxidotetrahydro-2H-thiopyran-4-yl)-5-((3-(2,2,2-trifluoroethoxy)pyridin-2-yl)oxy)-3H-imidazo[4,5-b]pyridine-2-carboxamide], under setting [2], the IC50 was above 109 nM.

Consider `Cn1c(C(=O)NC2(C)CS(=O)(=O)C2)nc2ccc(Oc3ncccc3OCC(F)(F)F)nc21` [Example 35, 3-methyl-N-(3-methyl-1,1-dioxidothietan-3-yl)-5-((3-(2,2,2-trifluoroethoxy)pyridin-2-yl)oxy)-3H-imidazo[4,5-b]pyridine-2-carboxamide], for which, under setting [2], the IC50 was above 9990 nM.

For `Cn1c(C(=O)NC2(C)CS(=O)(=O)C2)nc2ccc(Oc3ncc(F)cc3OCC(F)F)nc21` [Example 36, 5-[[3-(2,2-difluoroethoxy)-5-fluoro-2-pyridyl]oxy]-3-methyl-N-(3-methyl-1,1-dioxo-thietan-3-yl)imidazo[4,5-b]pyridine-2-carboxamide], under setting [2], the IC50 is 42 nM.

With `Cc1cnc(Oc2ccc3nc(C(=O)NC4(C)CCS(=O)(=O)CC4)n(C)c3n2)c(OCC(F)F)c1` [Example 37, 5-[[3-(2,2-difluoroethoxy)-5-methyl-2-pyridyl]oxy]-3-methyl-N-(4-methyl-1,1-dioxo-thian-4-yl)imidazo[4,5-b]pyridine-2-carboxamide], under setting [2], the IC50 came out at 29 nM.

For `Cn1c(C(=O)NC2(C)CCS(=O)(=O)CC2)nc2ccc(Oc3nccnc3OCC(F)F)nc21` [Example 38, 5-[3-(2,2-difluoroethoxy)pyrazin-2-yl]oxy-3-methyl-N-(4-methyl-1,1-dioxo-thian-4-yl)imidazo[4,5-b]pyridine-2-carboxamide], the IC50 under setting [2] worked out at 20 nM.

For `Cn1c(C(=O)NC2(C)CCS(=O)(=O)CC2)nc2cc(F)c(Oc3ncc(Cl)cc3OCC(F)F)nc21` [Example 41, 5-((5-chloro-3-(2,2-difluoroethoxy)pyridin-2-yl)oxy)-6-fluoro-3-methyl-N-(4-methyl-1,1-dioxidotetrahydro-2H-thiopyran-4-yl)-3H-imidazo[4,5-b]pyridine-2-carboxamide], it took 1.5 nM to reach half-maximal inhibition under setting [1] (IC50).

Regarding `Cn1c(C(=O)NC2(C)CCS(=O)(=O)CC2)nc2cc(F)c(Oc3ncc(F)cc3OCC(F)(F)F)nc21` [Example 42, 6-fluoro-5-((5-fluoro-3-(2,2,2-trifluoroethoxy)pyridin-2-yl)oxy)-3-methyl-N-(4-methyl-1,1-dioxidotetrahydro-2H-thiopyran-4-yl)-3H-imidazo[4,5-b]pyridine-2-carboxamide], under setting [2], the IC50 turned out to be 2.2 nM.

As for `Cn1c(C(=O)NC2(C)CCS(=O)(=O)CC2)nc2cc(F)c(Oc3ncc(F)cc3OCC(C)(F)F)nc21` [Example 43, 5-[[3-(2,2-difluoropropoxy)-5-fluoro-2-pyridyl]oxy]-6-fluoro-3-methyl-N-(4-methyl-1,1-dioxo-thian-4-yl)imidazo[4,5-b]pyridine-2-carboxamide], the IC50 under setting [2] turned out to be 34 nM.

The compound `Cn1c(C(=O)NC2(C)CCS(=O)(=O)CC2)nc2cc(Cl)c(Oc3ncc(Cl)cc3OCC(F)F)nc21` [Example 44, 6-chloro-5-((5-chloro-3-(2,2-difluoroethoxy)pyridin-2-yl)oxy)-3-methyl-N-(4-methyl-1,1-dioxidotetrahydro-2H-thiopyran-4-yl)-3H-imidazo[4,5-b]pyridine-2-carboxamide] gave an IC50 under setting [1] of 86 nM.

The compound `Cc1cc2nc(C(=O)NC3(C)CCS(=O)(=O)CC3)n(C)c2nc1Oc1ncc(Cl)cc1OCC(F)F` [Example 45, 5-((5-chloro-3-(2,2-difluoroethoxy)pyridin-2-yl)oxy)-3,6-dimethyl-N-(4-methyl-1,1-dioxidotetrahydro-2H-thiopyran-4-yl)-3H-imidazo[4,5-b]pyridine-2-carboxamide] came in with an IC50 under setting [1] of 2.2 nM.

For `Cc1cc2nc(C(=O)NC3(C)CCS(=O)(=O)CC3)n(C)c2nc1Oc1ncc(F)cc1OCC(F)(F)F` [Example 46, 5-((5-fluoro-3-(2,2,2-trifluoroethoxy)pyridin-2-yl)oxy)-3,6-dimethyl-N-(4-methyl-1,1-dioxido-tetrahydro-2H-thiopyran-4-yl)-3H-imidazo[4,5-b]pyridine-2-carboxamide], the IC50 under setting [2] turned out to be 6.3 nM.

For the compound `Cc1cc2nc(C(=O)NC3(C)CCS(=O)(=O)CC3)n(C)c2nc1Oc1ncc(F)cc1OCC(C)(F)F` [Example 47, 5-[[3-(2,2-difluoropropoxy)-5-fluoro-2-pyridyl]oxy]-3,6-dimethyl-N-(4-methyl-1,1-dioxo-thian-4-yl)imidazo[4,5-b]pyridine-2-carboxamide], the IC50 under setting [2] is 79 nM.

Consider `Cc1cc2nc(C(=O)NC3(C)CCS(=O)(=O)CC3)n(C)c2nc1Oc1ncc(F)cc1OCC(F)F` [Example 48, 5-[[3-(2,2-difluoroethoxy)-5-fluoro-2-pyridyl]oxy]-3,6-dimethyl-N-(4-methyl-1,1-dioxo-thian-4-yl)imidazo[4,5-b]pyridine-2-carboxamide], for which, under setting [2], the IC50 came to 6.3 nM.

`Cc1cc(Oc2ncc(Cl)cc2OCC(F)F)nc2c1nc(C(=O)NC1(C)CCS(=O)(=O)CC1)n2C` [Example 49, 5-[[5-chloro-3-(2,2-difluoroethoxy)-2-pyridyl]oxy]-3,7-dimethyl-N-(4-methyl-1,1-dioxo-thian-4-yl)imidazo[4,5-b]pyridin-4-ium-2-carboxamide] had an IC50 under setting [1] of 4.4 nM.

For the compound `CC1(NC(=O)c2nc3ccc(Oc4ncc(Cl)cc4OCC(F)F)nc3[nH]2)CCS(=O)(=O)CC1` [Example 50, 5-((5-chloro-3-(2,2-difluoroethoxy)pyridin-2-yl)oxy)-N-(4-methyl-1,1-dioxidotetrahydro-2H-thiopyran-4-yl)-3H-imidazo[4,5-b]pyridine-2-carboxamide], the IC50 under setting [1] stood at 15 nM.

`CC(C)n1c(C(=O)NC2(C)CCS(=O)(=O)CC2)nc2nc(Oc3ncc(Cl)cc3OCC(F)F)ccc21` [Example 51, 5-((5-chloro-3-(2,2-difluoroethoxy)pyridin-2-yl)oxy)-1-isopropyl-N-(4-methyl-1,1-dioxidotetrahydro-2H-thiopyran-4-yl)-1H-imidazo[4,5-b]pyridine-2-carboxamide] registered an IC50 under setting [1] of 533 nM.

Consider `CC(C)n1c(C(=O)NC2(C)CCS(=O)(=O)CC2)nc2ccc(Oc3ncc(Cl)cc3OCC(F)F)nc21` [Example 52, 5-((5-chloro-3-(2,2-difluoroethoxy)pyridin-2-yl)oxy)-3-isopropyl-N-(4-methyl-1,1-dioxidotetrahydro-2H-thiopyran-4-yl)-3H-imidazo[4,5-b]pyridine-2-carboxamide], for which, under setting [1], the midpoint of inhibition, the IC50, lay at 3.6 nM.

In the case of `CC1(NC(=O)c2nc3nc(Oc4ncc(Cl)cc4OCC(F)F)ccc3n2CC(F)F)CCS(=O)(=O)CC1` [Example 53, 5-((5-chloro-3-(2,2-difluoroethoxy)pyridin-2-yl)oxy)-1-(2,2-difluoroethyl)-N-(4-methyl-1,1-dioxidotetrahydro-2H-thiopyran-4-yl)-1H-imidazo[4,5-b]pyridine-2-carboxamide], the IC50 under setting [2] stood at 134 nM.

Regarding `CC1(NC(=O)c2nc3ccc(Oc4ncc(Cl)cc4OCC(F)F)nc3n2CC(F)F)CCS(=O)(=O)CC1` [Example 54, 5-((5-chloro-3-(2,2-difluoroethoxy)pyridin-2-yl)oxy)-3-(2,2-difluoroethyl)-N-(4-methyl-1,1-dioxidotetrahydro-2H-thiopyran-4-yl)-3H-imidazo[4,5-b]pyridine-2-carboxamide], under setting [2], the IC50 stood at 0.6 nM.

With `CCn1c(C(=O)NC2(C)CCS(=O)(=O)CC2)nc2ccc(Oc3ncc(Cl)cc3OCC(F)F)nc21` [Example 55, 5-((5-chloro-3-(2,2-difluoroethoxy)pyridin-2-yl)oxy)-3-ethyl-N-(4-methyl-1,1-dioxidotetrahydro-2H-thiopyran-4-yl)-3H-imidazo[4,5-b]pyridine-2-carboxamide], under setting [2], the IC50 was determined as 8.9 nM.

Turning to `CC1(NC(=O)c2nc3nc(Oc4ncc(Cl)cc4OCC(F)F)ccc3n2CC2(F)COC2)CCS(=O)(=O)CC1` [Example 56, 5-((5-chloro-3-(2,2-difluoroethoxy)pyridin-2-yl)oxy)-1-((3-fluorooxetan-3-yl)methyl)-N-(4-methyl-1,1-dioxidotetrahydro-2H-thiopyran-4-yl)-1H-imidazo[4,5-b]pyridine-2-carboxamide], the half-inhibitory concentration (IC50) under setting [2] is 51 nM.

Take `CC1(NC(=O)c2nc3ccc(Oc4ncc(Cl)cc4OCC(F)F)nc3n2CC2(F)COC2)CCS(=O)(=O)CC1` [Example 57, 5-((5-chloro-3-(2,2-difluoroethoxy)pyridin-2-yl)oxy)-3-((3-fluorooxetan-3-yl)methyl)-N-(4-methyl-1,1-dioxidotetrahydro-2H-thiopyran-4-yl)-3H-imidazo[4,5-b]pyridine-2-carboxamide]: under setting [2], the IC50 came out at 183 nM.

Consider `Cn1c(C(=O)NC2(C)CCS(=O)(=O)CC2)nc2ccc(OCc3ncc(Cl)cc3OCC(F)F)nc21` [Example 58, 5-((5-Chloro-3-(2,2-difluoroethoxy)pyridin-2-yl)methoxy)-3-methyl-N-(4-methyl-1,1-dioxidotetrahydro-2H-thiopyran-4-yl)-3H-imidazo[4,5-b]pyridine-2-carboxamide], for which it took 2.3 nM to reach half-maximal inhibition under setting [1] (IC50).
